# Data: patent US8530434B2, “Nitroxide free radical synergized antineoplastic agents” (The Trustees of California State University, priority 2006, dated 2013)
# Entries after “also recorded” stand apart in the source; their conditions may differ.
# Experiments:
# [1] = tested on: short single strand DNA units comprising of 3′-ATCGT-5′; assay: 1H and 31P NMR study of interaction with short single strand DNA; type: binding; conditions: 1:1 molar ratio with DNA in DMSO-d6, 600 MHz NMR
# Excerpt: (§1) We did the ^1H and ^31P NMR experiments at a 600 MHz NMR spectrometer for all three samples.
# [2] = tested on: MCF-7, human breast cancer cells and KB, human liver cancer cells; assay: LDH measurement of cytotoxicity; conditions: for % cytotoxicity: LDH assay, 72 hours incubation, same conditions and same concentrations, rank among the four treatments, cell line not specified
# Procedure: MCF-7, human breast cancer cells and KB, human liver cancer cells were maintained in an RPMI 1640 medium, which was supplemented with 10% (v/v) heat-inactivated FBS and 1% (v/v) penicillin-streptomycin (100 U/mL penicillin G and 100 μg/mL streptomycin). The cells were incubated and then allowed to grow into a monolayer at a Petri dish at 37° C. in 5% CO2 and 90% relative humidity. The cells were detached by trypsinisation. Specifically, to detach the monolayer of cells, the medium was removed from the cell culture dish and the cells were washed by PBS buffer solution. Then 1 mL of the enzyme of trypsin was transferred to the cell dish and then the dish was incubated for 3 min. After the incubation, we transferred 4 mL of the RPMI 1640 medium to the cell dish and pipetted the cell suspension up and down to mix them well. The cell suspension was examined by inverted phase contrast microscope to make sure cells were separated into a single cell suspension. We transferred the cell suspension to a 10 mL-tube and centrifuged it to separate cell pellet from the medium. The cells were washed twice in the RPMI 1640 medium by centrifugation at 300×g for 5 min, and then the washed cells were re-suspended in 10 mL of medium. Cell number and viability were determined by using a dye of trypan blue, a special counting chamber, the hemocytometer and microscope. The cell density was calculated by the formula, cell concentration=(N1+N2+N3+N4+N5)×4×10^3 cells/mL, where N1 to N5 denote the counting numbers in the chamber. The cell suspension was diluted to a final concentration of 100,000 cells/mL in the RPMI 1640 medium.
# The cells were initially seeded in a 96-well plate with a cell density of 10,000 cells per well by transferring 100 μL of 100,000 cells/mL suspension to each well using a multi-pipette. The 96-well plate was incubated for 24 hours at 37° C. in a humidified, 5% CO2 atmosphere. After incubation of 24 h, the growth medium was removed and replaced with 100 μL of fresh medium with different concentrations of drugs in 3 repeats.
# Performed serial two-fold dilution from Row H to Row A. Use extra column as the negative control containing 100 μL of the medium and cells only. Before the drug solutions were administered, removed the growth medium from each well and then replace 100 μL of each drug solution. Each concentration had 3 repeats. Incubate the plate for 72 hours.
# 10 μl of Lysis Solution was added from row A to H, and incubated for 45 minutes in a humidified chamber at 37° C., under 5% CO2.
# 50 μl supernatant was transferred from all wells to a fresh 96-well flat bottom enzymatic assay plate. […] 50 μl Stop Solution was added to each well, and the absorbances were recorded at a wavelength of 490 nm within one hour after adding the stop solution.
# [3] = Solubility in D2O (sample preparation for NMR)
# Excerpt: as §1
Compound,interaction with DNA (changes of 1H and 31P NMR spectra) [1],% cytotoxicity [2],solubility in D2O [3],potency compared with co-administration of the two drugs ([2]; summary statement)
"CC1(C)CC(O)CC(C)(C)N1[O] [TEMPOL, 4-hydroxy-2,2,6,6-tetramethylpiperidine-N-oxyl]",interacts with DNA,the least; also recorded: very low % cytotoxicity,,
CC1(C)CC(OC(=O)CCCc2ccc(N(CCCl)CCCl)cc2)CC(C)(C)N1[O] [chlorambucil-TEMPOL adduct],interact with the DNA collaboratively,the most % cytotoxicity,weakly soluble,higher potency than mere co-administration of the two drugs
O=C(O)CCCc1ccc(N(CCCl)CCCl)cc1 [chlorambucil],interaction of the alkylating agent with DNA,the third,weakly soluble,
